In US20230271995A1, “METHODS FOR PRODUCING DIHYDRONICOTINAMIDE RIBOSIDE FROM NICOTINAMIDE RIBOSIDE CHLORIDE” (SOCIETE DES PRODUITS NESTLE S.A., priority 2020, published 2023):

What was measured:
[1] = Stability of NRH and NR aqueous solutions over 60 days of storage, remaining concentration by HPLC; details: aqueous solution, atmosphere not stated
[2] = tested on: NAD^+; details: NR taken as a supplement; cited from earlier work
[3] = Thermogravimetric analysis (TGA) thermal stability under N2; assay type: physicochemical; details: 25 to 900° C.
Method: Characterization. […] Thermogravimetric analysis (TGA) thermograms were prepared in the range of 20-900° C. at a temperature rate of 10° C. min^−1 under N2 flow, using a TA Q100 instrument.

**Q.** With `NC(=O)c1ccc[n+]([C@@H]2O[C@H](CO)[C@@H](O)[C@H]2O)c1` [NR, nicotinamide riboside] as the compound, how does the degradation ([1]; 4° C., 60 days) read?
**A.** Its degradation is “no detectable degradation”.

**Q.** And the degradation ([1]; 25° C., 30 days)?
**A.** Its degradation is 48%.

**Q.** And the degradation ([1]; 25° C., 60 days)?
**A.** The degradation was 68%.

**Q.** What about the “boost of the level of NAD^+” value [2] of the same compound?
**A.** Its value is 60%.

**Q.** What about the “temperature of greatest weight loss (TGA)” value ([3]; 10° C. min^−1, N2 atmosphere) of the same compound?
**A.** The value was ~910 °C.

**Q.** With `NC(=O)c1ccc[n+]([C@@H]2O[C@H](CO)[C@@H](O)[C@H]2O)c1.[Cl-]` [NRCl, nicotinamide riboside chloride] as the compound, how does the “weight loss at the temperature of greatest weight loss (TGA)” value ([3]; N2 atmosphere) read?
**A.** The value was “around 65%”.
